Molecular target: T1, ΔF508-CFTR (Homo sapiens, UniProt P13569, DEL508-508)
T1 construct: expressed in transfected cells
Experiment: Membrane potential optical assay for ΔF508-CFTR correction (identification of correction compounds)
Type: cell-based
Conditions: NIH3T3; NIH 3T3 cells stably expressing ΔF508-CFTR; read-out: % Efficacy
Excerpt: Assays for Detecting and Measuring M508-CFTR Correction Properties of Compounds
Membrane potential optical methods for assaying ΔF508-CFTR modulation properties of compounds.
The assay utilizes fluorescent voltage sensing dyes to measure changes in membrane potential using a fluorescent plate reader (e.g., FLIPR III, Molecular Devices, Inc.) as a readout for increase in functional ΔF508-CFTR in NIH 3T3 cells. The driving force for the response is the creation of a chloride ion gradient in conjunction with channel activation by a single liquid addition step after the cells have previously been treated with compounds and subsequently loaded with a voltage sensing dye.
To identify small molecules that correct the trafficking defect associated with ˜F508-CFTR; a single-addition HTS assay format was developed. Assay Plates containing cells are incubated for ˜2-4 hours in tissue culture incubator at 37° C., S % CO2, 90% humidity. Cells are then ready for compound exposure after adhering to the bottom of the assay plates.
The cells were incubated in serum-free medium for 16-24 hrs in tissue culture incubator at 37° C., S % CO2, 90% humidity in the presence or absence (negative control) of test compound. […] The addition of Cl^−-free medium promoted Cl^− efflux in response to ΔF508-CFTR activation and the resulting membrane depolarization was optically monitored using voltage sensor dyes. […]

T1 sequence (P13569 with tags, fused parts or gaps DEL508-508): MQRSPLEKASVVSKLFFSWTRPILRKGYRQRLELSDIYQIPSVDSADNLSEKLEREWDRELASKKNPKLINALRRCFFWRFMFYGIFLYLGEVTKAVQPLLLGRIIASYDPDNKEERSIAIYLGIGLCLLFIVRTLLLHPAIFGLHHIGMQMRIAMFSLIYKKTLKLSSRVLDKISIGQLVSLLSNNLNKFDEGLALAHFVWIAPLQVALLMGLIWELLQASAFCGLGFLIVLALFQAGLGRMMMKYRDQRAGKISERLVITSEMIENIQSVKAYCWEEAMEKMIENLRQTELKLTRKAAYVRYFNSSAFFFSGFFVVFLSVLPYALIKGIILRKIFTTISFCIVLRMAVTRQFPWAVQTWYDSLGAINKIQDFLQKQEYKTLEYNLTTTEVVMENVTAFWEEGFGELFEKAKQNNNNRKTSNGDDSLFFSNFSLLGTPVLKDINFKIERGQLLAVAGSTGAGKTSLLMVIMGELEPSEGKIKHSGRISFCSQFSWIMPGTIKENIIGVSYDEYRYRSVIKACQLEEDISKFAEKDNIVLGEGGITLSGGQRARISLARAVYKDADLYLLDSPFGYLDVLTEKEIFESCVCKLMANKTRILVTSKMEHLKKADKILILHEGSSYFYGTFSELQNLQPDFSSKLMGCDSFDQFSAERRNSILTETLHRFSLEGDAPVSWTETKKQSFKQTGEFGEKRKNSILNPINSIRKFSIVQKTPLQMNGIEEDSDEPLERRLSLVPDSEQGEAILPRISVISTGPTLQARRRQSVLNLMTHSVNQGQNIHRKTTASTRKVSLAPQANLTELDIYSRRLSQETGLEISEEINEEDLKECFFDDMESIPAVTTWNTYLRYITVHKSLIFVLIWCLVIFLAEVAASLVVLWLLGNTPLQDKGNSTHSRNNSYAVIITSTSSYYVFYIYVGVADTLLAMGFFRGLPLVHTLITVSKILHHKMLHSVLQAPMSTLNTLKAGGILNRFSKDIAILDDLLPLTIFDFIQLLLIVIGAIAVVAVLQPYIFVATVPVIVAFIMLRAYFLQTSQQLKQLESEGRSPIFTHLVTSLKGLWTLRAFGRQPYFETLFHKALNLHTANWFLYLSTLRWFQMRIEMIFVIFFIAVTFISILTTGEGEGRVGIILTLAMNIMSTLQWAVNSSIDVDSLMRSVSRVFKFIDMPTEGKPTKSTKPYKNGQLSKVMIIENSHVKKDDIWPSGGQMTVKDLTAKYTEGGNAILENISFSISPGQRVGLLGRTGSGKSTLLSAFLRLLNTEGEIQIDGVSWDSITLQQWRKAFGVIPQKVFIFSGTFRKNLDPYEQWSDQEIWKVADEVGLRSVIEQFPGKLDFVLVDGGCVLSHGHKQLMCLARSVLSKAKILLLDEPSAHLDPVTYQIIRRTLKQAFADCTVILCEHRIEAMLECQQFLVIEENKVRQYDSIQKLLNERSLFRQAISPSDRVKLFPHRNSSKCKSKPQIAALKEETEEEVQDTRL

Emax: > 100%
SMILES: CC1(C)c2cc3cc(NC(=O)C4(c5ccc6c(c5)OC(F)(F)O6)CC4)c(F)cc3n2C[C@H](CO)OC1O (stereo partly drawn) [1-(2,2-difluorobenzo[d][1,3]dioxol-5-yl)-N-((4R)-8-fluoro-2-hydroxy-4-(hydroxymethyl)-1,1-dimethyl-1,2,4,5-tetrahydro-[1,4]oxazepino[4,5-a]indol-9-yl)cyclopropanecarboxamide]

— patent publication US20160166540A1, “MODULATORS FOR ATP-BINDING CASSETTE TRANSPORTERS” (VERTEX PHARMACEUTICALS INCORPORATED, priority 2011, published 2016)
